Publication PMC7520961, “Safety evaluation of the interchangeable use of robenacoxib in commercially-available tablets and solution for injection in cats” (BMC Veterinary Research, 2020)
Entries after “also recorded” stand apart in the source; their conditions may differ.

Key:
cats = conditions: in vivo
[1] = Dissolution of robenacoxib tablets with or without gelatin capsule; format: physicochemical; conditions: by 40 minutes; tablets whether or not encapsulated in gelatin capsules; data not shown
[2] = Toxicokinetics: robenacoxib concentration in blood by LC-MS/MS; format: in vivo, cat
Procedure: Approximately 0.5 mL of whole blood was collected from animals via the jugular vein and placed in tubes containing K2EDTA. Samples were collected within 30 minutes prior to dosing and at 0.75, and 4 hours postdose on Days 1, 4, 7, 10, 17, 30, and 37. A single 0.5 mL sample was collected from all animals 4 hours postdose on Days 8, 11, 14, 28, 31, and 34. The animals were fasted for predose and 0.75 hour blood collections and were fed 2 to 3 hours after dose administration. Samples were stored frozen (-10 to […]) within approximately 1 hour after collection until analyzed. Day 1 blood samples were inadvertently processed to plasma and therefore not analyzed.
Robenacoxib was quantitatively analyzed in blood using a validated analytical method involving liquid chromatography with tandem mass spectrometry detection (LC-MS/MS) that has been previously describe. Performance of the method was monitored by low, medium and high quality control samples, where inter-run %RSD (relative standard deviation) was 8.3, 7.4, and 5.8, respectively.
Only abbreviated toxicokinetic sampling was performed so as not to interfere with the primary objective of the study. Concentrations below the limit of quantification were considered 0.

SMILES: CCc1ccc(Nc2c(F)c(F)cc(F)c2F)c(CC(=O)O)c1 [robenacoxib]
- QT duration vs control (RR interval as covariate) (cats): No prolongation
- QT interval, average post-treatment (cats): approximately 160 ms
- QT interval, average pretest values (cats): approximately 140 ms
- mean baseline heart rate (cats): approximately 305 bpm
- mean heart rate post treatment (cats): 260-277 bpm
- qualitative assessment of electrocardiograms (cats): qualitatively normal
- robenacoxib dissolved [1]: approximately 93%
- plasma robenacoxib concentration (mean ± SD) ([2]; 1X, SC 2.0 mg/kg/day, Study Day 8, 4 h postdose): 98.2 ± 60.7 ng/mL
- plasma robenacoxib concentration (mean ± SD) ([2]; 1X, SC 2.0 mg/kg/day, Study Day 10, 0.75 h postdose): 1124.1 ± 325.9 ng/mL
- plasma robenacoxib concentration (mean ± SD) ([2]; 1X, SC 2.0 mg/kg/day, Study Day 10, 4 h postdose): 79.1 ± 51.5 ng/mL
- plasma robenacoxib concentration (mean ± SD) ([2]; 1X, SC 2.0 mg/kg/day, Study Day 28, 4 h postdose): 117.2 ± 86.1 ng/mL
- plasma robenacoxib concentration (mean ± SD) ([2]; 1X, SC 2.0 mg/kg/day, Study Day 30, 0.75 h postdose): 1358.6 ± 254.5 ng/mL
- plasma robenacoxib concentration (mean ± SD) ([2]; 1X, SC 2.0 mg/kg/day, Study Day 30, 4 h postdose): 94.8 ± 68.3 ng/mL
- plasma robenacoxib concentration (mean ± SD) ([2]; 1X, oral ≥2.4 mg/kg/day, Study Day 4, 0.75 h postdose): 2593.1 ± 909.5 ng/mL
- plasma robenacoxib concentration (mean ± SD) ([2]; 1X, oral ≥2.4 mg/kg/day, Study Day 4, 4 h postdose): 22.9 ± 11.6 ng/mL
- plasma robenacoxib concentration (mean ± SD) ([2]; 1X, oral ≥2.4 mg/kg/day, Study Day 7, 0.75 h postdose): 2591.3 ± 875.5 ng/mL
- plasma robenacoxib concentration (mean ± SD) ([2]; 1X, oral ≥2.4 mg/kg/day, Study Day 7, 4 h postdose): 26.9 ± 27.4 ng/mL
- plasma robenacoxib concentration (mean ± SD) ([2]; 1X, oral ≥2.4 mg/kg/day, Study Day 11, 4 h postdose): 34.9 ± 36.2 ng/mL
- plasma robenacoxib concentration (mean ± SD) ([2]; 1X, oral ≥2.4 mg/kg/day, Study Day 14, 4 h postdose): 19.0 ± 7.3 ng/mL
- plasma robenacoxib concentration (mean ± SD) ([2]; 1X, oral ≥2.4 mg/kg/day, Study Day 17, 0.75 h postdose): 2811.3 ± 1502.1 ng/mL
- plasma robenacoxib concentration (mean ± SD) ([2]; 1X, oral ≥2.4 mg/kg/day, Study Day 17, 4 h postdose): 42.7 ± 49.7 ng/mL
- plasma robenacoxib concentration (mean ± SD) ([2]; 1X, oral ≥2.4 mg/kg/day, Study Day 31, 4 h postdose): 27.2 ± 16.0 ng/mL
- plasma robenacoxib concentration (mean ± SD) ([2]; 1X, oral ≥2.4 mg/kg/day, Study Day 34, 4 h postdose): 35.3 ± 28.5 ng/mL
- plasma robenacoxib concentration (mean ± SD) ([2]; 1X, oral ≥2.4 mg/kg/day, Study Day 37, 0.75 h postdose): 2717.6 ± 1589.6 ng/mL
- plasma robenacoxib concentration (mean ± SD) ([2]; 1X, oral ≥2.4 mg/kg/day, Study Day 37, 4 h postdose): 90.4 ± 106.6 ng/mL
- plasma robenacoxib concentration (mean ± SD) ([2]; 2X, SC 4.0 mg/kg/day, Study Day 8, 4 h postdose): 233.6 ± 215.8 ng/mL
- plasma robenacoxib concentration (mean ± SD) ([2]; 2X, SC 4.0 mg/kg/day, Study Day 10, 0.75 h postdose): 1481.3 ± 359.7 ng/mL
- plasma robenacoxib concentration (mean ± SD) ([2]; 2X, SC 4.0 mg/kg/day, Study Day 10, 4 h postdose): 263.1 ± 249.4 ng/mL
- plasma robenacoxib concentration (mean ± SD) ([2]; 2X, SC 4.0 mg/kg/day, Study Day 28, 4 h postdose): 236.6 ± 130.2 ng/mL
- plasma robenacoxib concentration (mean ± SD) ([2]; 2X, SC 4.0 mg/kg/day, Study Day 30, 0.75 h postdose): 1821.6 ± 817.9 ng/mL
- plasma robenacoxib concentration (mean ± SD) ([2]; 2X, SC 4.0 mg/kg/day, Study Day 30, 4 h postdose): 326.0 ± 276.7 ng/mL
- plasma robenacoxib concentration (mean ± SD) ([2]; 2X, oral ≥4.8 mg/kg/day, Study Day 4, 0.75 h postdose): 5177.5 ± 2229.5 ng/mL
- plasma robenacoxib concentration (mean ± SD) ([2]; 2X, oral ≥4.8 mg/kg/day, Study Day 4, 4 h postdose): 54.2 ± 28.5 ng/mL
- plasma robenacoxib concentration (mean ± SD) ([2]; 2X, oral ≥4.8 mg/kg/day, Study Day 7, 0.75 h postdose): 3383.8 ± 1818.8 ng/mL
- plasma robenacoxib concentration (mean ± SD) ([2]; 2X, oral ≥4.8 mg/kg/day, Study Day 7, 4 h postdose): 67.8 ± 58.5 ng/mL
- plasma robenacoxib concentration (mean ± SD) ([2]; 2X, oral ≥4.8 mg/kg/day, Study Day 11, 4 h postdose): 66.6 ± 57.4 ng/mL
- plasma robenacoxib concentration (mean ± SD) ([2]; 2X, oral ≥4.8 mg/kg/day, Study Day 14, 4 h postdose): 53.8 ± 59.0 ng/mL
- plasma robenacoxib concentration (mean ± SD) ([2]; 2X, oral ≥4.8 mg/kg/day, Study Day 17, 0.75 h postdose): 4160.0 ± 1166.0 ng/mL
- plasma robenacoxib concentration (mean ± SD) ([2]; 2X, oral ≥4.8 mg/kg/day, Study Day 17, 4 h postdose): 64.5 ± 54.7 ng/mL
- plasma robenacoxib concentration (mean ± SD) ([2]; 2X, oral ≥4.8 mg/kg/day, Study Day 31, 4 h postdose): 101.5 ± 152.6 ng/mL
- plasma robenacoxib concentration (mean ± SD) ([2]; 2X, oral ≥4.8 mg/kg/day, Study Day 34, 4 h postdose): 92.2 ± 58.5 ng/mL
- plasma robenacoxib concentration (mean ± SD) ([2]; 2X, oral ≥4.8 mg/kg/day, Study Day 37, 0.75 h postdose): 4009.4 ± 1765.2 ng/mL
- plasma robenacoxib concentration (mean ± SD) ([2]; 2X, oral ≥4.8 mg/kg/day, Study Day 37, 4 h postdose): 80.0 ± 62.6 ng/mL
- plasma robenacoxib concentration (mean ± SD) ([2]; 3X, SC 6.0 mg/kg/day, Study Day 8, 4 h postdose): 723.3 ± 250.8 ng/mL
- plasma robenacoxib concentration (mean ± SD) ([2]; 3X, SC 6.0 mg/kg/day, Study Day 10, 0.75 h postdose): 2461.3 ± 1075.8 ng/mL
- plasma robenacoxib concentration (mean ± SD) ([2]; 3X, SC 6.0 mg/kg/day, Study Day 10, 4 h postdose): 390.2 ± 236.2 ng/mL
- plasma robenacoxib concentration (mean ± SD) ([2]; 3X, SC 6.0 mg/kg/day, Study Day 28, 4 h postdose): 394.8 ± 187.7 ng/mL
- plasma robenacoxib concentration (mean ± SD) ([2]; 3X, SC 6.0 mg/kg/day, Study Day 30, 0.75 h postdose): 2878.8 ± 831.4 ng/mL
- plasma robenacoxib concentration (mean ± SD) ([2]; 3X, SC 6.0 mg/kg/day, Study Day 30, 4 h postdose): 418.7 ± 246.2 ng/mL
- plasma robenacoxib concentration (mean ± SD) ([2]; 3X, oral ≥7.2 mg/kg/day, Study Day 4, 0.75 h postdose): 5511.8 ± 3389.8 ng/mL
- plasma robenacoxib concentration (mean ± SD) ([2]; 3X, oral ≥7.2 mg/kg/day, Study Day 4, 4 h postdose): 98.0 ± 48.6 ng/mL
- plasma robenacoxib concentration (mean ± SD) ([2]; 3X, oral ≥7.2 mg/kg/day, Study Day 7, 0.75 h postdose): 7267.5 ± 4006.6 ng/mL
- plasma robenacoxib concentration (mean ± SD) ([2]; 3X, oral ≥7.2 mg/kg/day, Study Day 7, 4 h postdose): 76.2 ± 32.2 ng/mL
- plasma robenacoxib concentration (mean ± SD) ([2]; 3X, oral ≥7.2 mg/kg/day, Study Day 11, 4 h postdose): 99.2 ± 36.3 ng/mL
- plasma robenacoxib concentration (mean ± SD) ([2]; 3X, oral ≥7.2 mg/kg/day, Study Day 14, 4 h postdose): 79.1 ± 38.0 ng/mL
- plasma robenacoxib concentration (mean ± SD) ([2]; 3X, oral ≥7.2 mg/kg/day, Study Day 17, 0.75 h postdose): 5798.8 ± 3218.0 ng/mL
- plasma robenacoxib concentration (mean ± SD) ([2]; 3X, oral ≥7.2 mg/kg/day, Study Day 17, 4 h postdose): 108.5 ± 67.8 ng/mL
- plasma robenacoxib concentration (mean ± SD) ([2]; 3X, oral ≥7.2 mg/kg/day, Study Day 31, 4 h postdose): 94.7 ± 69.7 ng/mL
- plasma robenacoxib concentration (mean ± SD) ([2]; 3X, oral ≥7.2 mg/kg/day, Study Day 34, 4 h postdose): 84.2 ± 30.3 ng/mL
- plasma robenacoxib concentration (mean ± SD) ([2]; 3X, oral ≥7.2 mg/kg/day, Study Day 37, 0.75 h postdose): 6460.0 ± 3839.3 ng/mL
- plasma robenacoxib concentration (mean ± SD) ([2]; 3X, oral ≥7.2 mg/kg/day, Study Day 37, 4 h postdose): 123.2 ± 121.7 ng/mL
- oral administration vs subcutaneous injection, average concentrations ([2]; all dose groups): higher average 0.75 h concentrations and lower average 4 h concentrations
- accumulation of robenacoxib ([2]; comparing concentrations 4 h post oral administration (Days 4, 7, 11, 14, 17, 31, 34, 37)): no accumulation observed after Day 4; also recorded: No robenacoxib accumulation was observed
